ChEMBL document CHEMBL5649169 (ChemMedChem, 2018)

Assays:
[1] = target: Ephrin type-B receptor 3 (Homo sapiens) (UniProt P54753)
[2] = target: Chitobiosyldiphosphodolichol beta-mannosyltransferase (Homo sapiens) (UniProt Q9BT22)
[3] = target: AP-2 complex subunit mu (Homo sapiens) (UniProt Q96CW1)
[4] = target: Calreticulin (Homo sapiens) (UniProt P27797)
[5] = target: Cullin-associated NEDD8-dissociated protein 1 (Homo sapiens) (UniProt Q86VP6)
[6] = target: T-complex protein 1 subunit zeta (Homo sapiens) (UniProt P40227)
[7] = target: Cyclin-dependent kinase 17 (Homo sapiens) (UniProt Q00537)
[8] = target: Ceroid-lipofuscinosis neuronal protein 6 (Homo sapiens) (UniProt Q9NWW5)
[9] = target: DAZ-associated protein 1 (Homo sapiens) (UniProt Q96EP5)
[10] = target: Spliceosome RNA helicase DDX39B (Homo sapiens) (UniProt Q13838)
[11] = target: Translation initiation factor eIF2B subunit delta (Homo sapiens) (UniProt Q9UI10)
[12] = target: Fatty acyl-CoA reductase 1 (Homo sapiens) (UniProt Q8WVX9)
[13] = target: Peptidyl-prolyl cis-trans isomerase FKBP4 (Homo sapiens) (UniProt Q02790)
Filamin-A (Homo sapiens) = Filamin-A (Homo sapiens) (UniProt P21333)
[14] = target: Guanine nucleotide-binding protein G(i) subunit alpha-2 (Homo sapiens) (UniProt P04899)
[15] = target: Hematopoietic lineage cell-specific protein (Homo sapiens) (UniProt P14317)
[16] = target: Isoleucine--tRNA ligase, cytoplasmic (Homo sapiens) (UniProt P41252)
[17] = target: Interleukin-1 receptor-associated kinase 4 (Homo sapiens) (UniProt Q9NWZ3)
[18] = target: Dolichyl-diphosphooligosaccharide--protein glycosyltransferase subunit KCP2 (Homo sapiens) (UniProt Q8N6L1)
[19] = target: Mitogen-activated protein kinase kinase kinase kinase 2 (Homo sapiens) (UniProt Q12851)
[20] = target: Mitogen-activated protein kinase 1 (Homo sapiens) (UniProt P28482)
[21] = target: Transport and Golgi organization protein 1 homolog (Homo sapiens) (UniProt Q5JRA6)
[22] = target: mRNA turnover protein 4 homolog (Homo sapiens) (UniProt Q9UKD2)
[23] = target: ATP synthase F(0) complex subunit a (Homo sapiens) (UniProt P00846)
[24] = target: NADH dehydrogenase [ubiquinone] 1 beta subcomplex subunit 10 (Homo sapiens) (UniProt O96000)
[25] = target: Serine/threonine-protein kinase NLK (Homo sapiens) (UniProt Q9UBE8)
[26] = target: Nuclear pore complex protein Nup155 (Homo sapiens) (UniProt O75694)
[27] = target: Propionyl-CoA carboxylase alpha chain, mitochondrial (Homo sapiens) (UniProt P05165)
Peflin (Homo sapiens) = Peflin (Homo sapiens) (UniProt Q9UBV8)
[28] = target: GPI-anchor transamidase (Homo sapiens) (UniProt Q92643)
[29] = target: Membrane-associated tyrosine- and threonine-specific cdc2-inhibitory kinase (Homo sapiens) (UniProt Q99640)
[30] = target: Serine/threonine-protein phosphatase 6 regulatory subunit 1 (Homo sapiens) (UniProt Q9UPN7)
[31] = target: Ribonuclease H1 (Homo sapiens) (UniProt O60930)
[32] = target: Large ribosomal subunit protein uL16 (Homo sapiens) (UniProt P27635)
[33] = target: Large ribosomal subunit protein uL11 (Homo sapiens) (UniProt P30050)
[34] = target: Large ribosomal subunit protein eL15 (Homo sapiens) (UniProt P61313)
[35] = target: Small ribosomal subunit protein eS6 (Homo sapiens) (UniProt P62753)
[36] = target: Signal peptidase complex catalytic subunit SEC11A (Homo sapiens) (UniProt P67812)
[37] = target: ADP/ATP translocase 1 (Homo sapiens) (UniProt P12235)
[38] = target: Structural maintenance of chromosomes protein 3 (Homo sapiens) (UniProt Q9UQE7)
[39] = target: Spectrin beta chain, non-erythrocytic 1 (Homo sapiens) (UniProt Q01082)
[40] = target: TNF receptor-associated factor 2 (Homo sapiens) (UniProt Q12933)
[41] = target: Ubiquitin-conjugating enzyme E2 L3 (Homo sapiens) (UniProt P68036)
[42] = target: Protein VAC14 homolog (Homo sapiens) (UniProt Q08AM6)
[43] = target: Vesicle-associated membrane protein 8 (Homo sapiens) (UniProt Q9BV40)
Also: assay method not described here.

Chain of Isoleucine--tRNA ligase, cytoplasmic (Homo sapiens) (P41252 whole entry): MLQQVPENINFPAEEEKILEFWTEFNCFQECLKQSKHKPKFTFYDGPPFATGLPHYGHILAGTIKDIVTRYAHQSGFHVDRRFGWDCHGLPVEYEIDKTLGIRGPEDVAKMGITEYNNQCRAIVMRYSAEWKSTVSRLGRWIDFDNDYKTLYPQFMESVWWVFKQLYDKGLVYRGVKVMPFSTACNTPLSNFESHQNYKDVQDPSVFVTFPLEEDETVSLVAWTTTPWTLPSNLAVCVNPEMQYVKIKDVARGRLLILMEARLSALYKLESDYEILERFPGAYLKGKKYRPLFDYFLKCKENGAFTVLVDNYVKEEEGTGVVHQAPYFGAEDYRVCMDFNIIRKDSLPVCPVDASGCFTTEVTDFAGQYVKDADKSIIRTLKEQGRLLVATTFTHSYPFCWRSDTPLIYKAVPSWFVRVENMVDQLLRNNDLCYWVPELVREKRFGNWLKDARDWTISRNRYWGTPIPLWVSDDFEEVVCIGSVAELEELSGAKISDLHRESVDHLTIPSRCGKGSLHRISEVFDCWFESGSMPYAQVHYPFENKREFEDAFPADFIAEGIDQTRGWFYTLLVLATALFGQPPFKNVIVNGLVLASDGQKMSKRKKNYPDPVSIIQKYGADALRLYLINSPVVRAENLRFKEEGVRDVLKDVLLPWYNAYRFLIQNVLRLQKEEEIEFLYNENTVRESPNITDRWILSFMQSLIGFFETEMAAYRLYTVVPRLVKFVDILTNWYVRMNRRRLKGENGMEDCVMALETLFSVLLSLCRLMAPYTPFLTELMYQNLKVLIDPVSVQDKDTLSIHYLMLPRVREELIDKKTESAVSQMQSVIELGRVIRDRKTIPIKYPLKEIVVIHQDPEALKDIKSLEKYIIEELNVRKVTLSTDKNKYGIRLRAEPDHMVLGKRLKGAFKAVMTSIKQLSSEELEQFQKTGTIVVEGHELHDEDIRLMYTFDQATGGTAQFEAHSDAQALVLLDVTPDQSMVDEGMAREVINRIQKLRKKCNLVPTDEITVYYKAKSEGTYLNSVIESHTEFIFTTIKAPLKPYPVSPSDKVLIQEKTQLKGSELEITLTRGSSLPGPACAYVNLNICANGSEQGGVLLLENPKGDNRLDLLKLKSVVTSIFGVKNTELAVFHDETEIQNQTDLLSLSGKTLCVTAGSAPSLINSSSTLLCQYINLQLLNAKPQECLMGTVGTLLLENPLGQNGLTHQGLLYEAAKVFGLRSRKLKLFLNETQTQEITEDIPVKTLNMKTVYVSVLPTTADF
Chain of Propionyl-CoA carboxylase alpha chain, mitochondrial (Homo sapiens) (P05165 whole entry): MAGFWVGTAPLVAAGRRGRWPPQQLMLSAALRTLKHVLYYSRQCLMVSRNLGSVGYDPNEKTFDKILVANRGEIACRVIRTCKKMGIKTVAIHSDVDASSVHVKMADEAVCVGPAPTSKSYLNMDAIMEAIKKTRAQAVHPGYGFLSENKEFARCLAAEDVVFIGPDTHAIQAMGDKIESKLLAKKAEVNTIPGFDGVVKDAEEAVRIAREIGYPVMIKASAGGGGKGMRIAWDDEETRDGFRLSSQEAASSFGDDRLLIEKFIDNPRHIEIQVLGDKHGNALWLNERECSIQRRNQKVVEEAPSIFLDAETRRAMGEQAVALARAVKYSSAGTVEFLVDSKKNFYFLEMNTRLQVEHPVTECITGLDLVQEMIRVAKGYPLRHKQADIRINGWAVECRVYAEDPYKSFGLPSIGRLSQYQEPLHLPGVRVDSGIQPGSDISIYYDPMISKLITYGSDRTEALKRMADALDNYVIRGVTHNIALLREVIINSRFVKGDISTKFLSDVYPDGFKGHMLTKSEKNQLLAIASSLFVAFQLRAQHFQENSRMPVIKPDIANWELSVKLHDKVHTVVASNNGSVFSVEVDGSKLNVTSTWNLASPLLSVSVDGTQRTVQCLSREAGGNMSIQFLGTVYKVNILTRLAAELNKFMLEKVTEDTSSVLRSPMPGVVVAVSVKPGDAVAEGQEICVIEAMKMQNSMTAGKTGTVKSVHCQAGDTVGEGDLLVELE
Chain of Protein VAC14 homolog (Homo sapiens) (Q08AM6 whole entry): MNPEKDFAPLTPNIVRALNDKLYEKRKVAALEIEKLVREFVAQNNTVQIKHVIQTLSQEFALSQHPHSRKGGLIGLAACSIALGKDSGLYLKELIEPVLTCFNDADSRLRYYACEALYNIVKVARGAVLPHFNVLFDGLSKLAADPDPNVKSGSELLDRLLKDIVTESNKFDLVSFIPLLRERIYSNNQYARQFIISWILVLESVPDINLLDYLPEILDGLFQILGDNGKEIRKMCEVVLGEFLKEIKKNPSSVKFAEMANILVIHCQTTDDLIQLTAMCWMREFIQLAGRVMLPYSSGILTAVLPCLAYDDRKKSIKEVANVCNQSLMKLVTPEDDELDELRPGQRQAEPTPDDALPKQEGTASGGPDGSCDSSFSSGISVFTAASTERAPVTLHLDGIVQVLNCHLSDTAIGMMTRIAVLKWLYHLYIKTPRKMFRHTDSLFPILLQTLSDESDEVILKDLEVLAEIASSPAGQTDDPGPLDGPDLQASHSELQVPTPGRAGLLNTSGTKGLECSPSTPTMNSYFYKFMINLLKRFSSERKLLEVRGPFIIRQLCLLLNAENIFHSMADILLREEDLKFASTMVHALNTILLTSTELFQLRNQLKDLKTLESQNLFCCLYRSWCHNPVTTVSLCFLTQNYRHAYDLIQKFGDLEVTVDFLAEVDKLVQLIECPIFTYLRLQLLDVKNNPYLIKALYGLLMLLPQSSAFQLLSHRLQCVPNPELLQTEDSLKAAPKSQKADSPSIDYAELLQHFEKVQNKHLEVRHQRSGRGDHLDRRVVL
Chain of Vesicle-associated membrane protein 8 (Homo sapiens) (Q9BV40 whole entry): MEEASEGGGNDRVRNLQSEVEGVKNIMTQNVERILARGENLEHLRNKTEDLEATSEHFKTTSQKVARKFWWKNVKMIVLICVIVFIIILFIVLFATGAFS
Chain of Serine/threonine-protein phosphatase 6 regulatory subunit 1 (Homo sapiens) (Q9UPN7 whole entry): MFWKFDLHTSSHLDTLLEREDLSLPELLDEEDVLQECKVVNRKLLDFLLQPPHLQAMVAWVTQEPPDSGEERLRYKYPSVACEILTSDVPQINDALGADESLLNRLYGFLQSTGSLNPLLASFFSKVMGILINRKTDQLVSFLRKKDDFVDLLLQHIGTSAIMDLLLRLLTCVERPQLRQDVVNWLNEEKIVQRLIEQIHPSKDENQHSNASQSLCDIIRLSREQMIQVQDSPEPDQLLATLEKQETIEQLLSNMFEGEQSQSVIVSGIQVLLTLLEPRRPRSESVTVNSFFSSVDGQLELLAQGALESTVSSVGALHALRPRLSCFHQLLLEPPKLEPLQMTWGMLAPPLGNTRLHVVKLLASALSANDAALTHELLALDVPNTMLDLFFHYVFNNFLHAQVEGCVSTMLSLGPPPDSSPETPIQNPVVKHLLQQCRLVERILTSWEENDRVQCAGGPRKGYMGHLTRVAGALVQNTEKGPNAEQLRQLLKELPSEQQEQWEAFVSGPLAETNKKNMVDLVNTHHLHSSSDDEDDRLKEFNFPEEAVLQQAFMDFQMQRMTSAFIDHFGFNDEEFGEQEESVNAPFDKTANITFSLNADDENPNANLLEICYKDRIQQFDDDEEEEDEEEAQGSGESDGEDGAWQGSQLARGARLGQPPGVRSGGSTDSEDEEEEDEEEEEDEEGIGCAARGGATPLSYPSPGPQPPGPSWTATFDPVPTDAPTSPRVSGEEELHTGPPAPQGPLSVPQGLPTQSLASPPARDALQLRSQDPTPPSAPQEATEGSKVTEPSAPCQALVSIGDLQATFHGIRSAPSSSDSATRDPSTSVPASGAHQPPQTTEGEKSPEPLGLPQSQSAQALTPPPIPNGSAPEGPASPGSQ
Chain of Ubiquitin-conjugating enzyme E2 L3 (Homo sapiens) (P68036 whole entry): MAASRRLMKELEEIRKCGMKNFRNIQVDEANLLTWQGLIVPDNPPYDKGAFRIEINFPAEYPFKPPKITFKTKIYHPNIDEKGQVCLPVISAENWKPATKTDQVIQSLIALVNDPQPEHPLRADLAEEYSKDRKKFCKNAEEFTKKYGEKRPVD
Chain of GPI-anchor transamidase (Homo sapiens) (Q92643 whole entry): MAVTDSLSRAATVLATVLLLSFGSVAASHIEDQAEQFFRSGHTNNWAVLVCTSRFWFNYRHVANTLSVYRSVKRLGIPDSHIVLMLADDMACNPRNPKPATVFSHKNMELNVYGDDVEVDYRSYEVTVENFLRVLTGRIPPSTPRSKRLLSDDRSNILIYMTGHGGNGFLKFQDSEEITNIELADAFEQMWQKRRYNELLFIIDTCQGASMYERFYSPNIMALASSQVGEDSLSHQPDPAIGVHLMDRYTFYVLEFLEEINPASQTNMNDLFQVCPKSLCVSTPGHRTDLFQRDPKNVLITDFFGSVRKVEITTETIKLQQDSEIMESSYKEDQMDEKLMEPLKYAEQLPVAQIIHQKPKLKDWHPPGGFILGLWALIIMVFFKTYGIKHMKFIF
Chain of Mitogen-activated protein kinase 1 (Homo sapiens) (P28482 whole entry): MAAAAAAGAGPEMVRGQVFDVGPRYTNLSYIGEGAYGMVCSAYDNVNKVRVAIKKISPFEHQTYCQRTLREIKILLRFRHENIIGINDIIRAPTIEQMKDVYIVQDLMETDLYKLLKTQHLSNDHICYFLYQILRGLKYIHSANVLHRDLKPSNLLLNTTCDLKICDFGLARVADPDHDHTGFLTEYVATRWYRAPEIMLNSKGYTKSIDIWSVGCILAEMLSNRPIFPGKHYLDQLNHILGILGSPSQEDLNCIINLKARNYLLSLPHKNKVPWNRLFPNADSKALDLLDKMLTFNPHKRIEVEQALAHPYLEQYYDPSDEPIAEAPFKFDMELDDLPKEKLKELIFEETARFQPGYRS
Chain of ADP/ATP translocase 1 (Homo sapiens) (P12235 whole entry): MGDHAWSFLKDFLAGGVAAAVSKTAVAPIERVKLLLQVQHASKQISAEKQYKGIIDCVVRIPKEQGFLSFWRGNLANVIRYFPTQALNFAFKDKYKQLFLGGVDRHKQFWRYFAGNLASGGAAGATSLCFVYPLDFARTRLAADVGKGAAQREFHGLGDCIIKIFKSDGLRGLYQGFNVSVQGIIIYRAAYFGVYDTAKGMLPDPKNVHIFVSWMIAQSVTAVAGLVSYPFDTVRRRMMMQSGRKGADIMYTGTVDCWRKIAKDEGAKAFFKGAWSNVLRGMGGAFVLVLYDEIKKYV

## Cc1ccc(C(=O)Nc2cccc(C(F)(F)F)c2)cc1Nc1nc(-c2cccnc2)nc2c1cnn2C
[1]
  ED50: 2.64 µM
[2]
  ED50: 1.14 µM
[3]
  ED50: 5.13 µM
[4]
  ED50: 24.3 µM
[5]
  ED50: 0.11 µM
[6]
  ED50: 5.44 µM
[7]
  ED50: 13.1 µM
[8]
  ED50: 12.5 µM
[9]
  ED50: 0.124 µM
[10]
  ED50: 18.4 µM
[11]
  ED50: 9.56 µM
[12]
  ED50: 4.69 µM
[13]
  ED50: 8.87 µM
Filamin-A (Homo sapiens)
  ED50: 7.88 µM
[14]
  ED50: 0.335 µM
[15]
  ED50: 0.0299 µM
[16]
  ED50: 0.0944 µM
[17]
  ED50: 0.466 µM
[18]
  ED50: 0.164 µM
[19]
  ED50: 0.0201 µM
[20]
  ED50: 0.027 µM
[21]
  ED50: 3.64 µM
[22]
  ED50: 10.8 µM
[23]
  ED50: 0.677 µM
[24]
  ED50: 1.17 µM
[25]
  ED50: 0.00185 µM
[26]
  ED50: 0.537 µM
[27]
  ED50: 0.596 µM
Peflin (Homo sapiens)
  ED50: 6.52 µM
[28]
  ED50: 3.43 µM
[29]
  ED50: 0.00995 µM
[30]
  ED50: 10.4 µM
[31]
  ED50: 12.7 µM
[32]
  ED50: 0.0767 µM
[33]
  ED50: 3.63 µM
[34]
  ED50: 0.425 µM
[35]
  ED50: 0.0144 µM
[36]
  ED50: 430 µM
[37]
  ED50: 1.74 µM
[38]
  ED50: 0.0434 µM
[39]
  ED50: 1.61 µM
[40]
  ED50: 3.11 µM
[41]
  ED50: 5.79 µM
[42]
  ED50: 0.648 µM
[43]
  ED50: 1.84 µM

## Cc1ccc(C(=O)Nc2cccc(C(F)(F)F)c2)cc1Nc1nc(-c2cccnc2)nc2nn(C)cc12
[1]
  ED50: 7.41 µM
[2]
  ED50: 0.0163 µM
[3]
  ED50: 211 µM
[4]
  ED50: 24.5 µM
[5]
  ED50: 1.74 µM
[6]
  ED50: 0.677 µM
[7]
  ED50: 0.121 µM
[8]
  ED50: 1910 µM
[9]
  ED50: 0.0265 µM
[10]
  ED50: 0.957 µM
[11]
  ED50: 0.308 µM
[12]
  ED50: 113 µM
[13]
  ED50: 0.546 µM
Filamin-A (Homo sapiens)
  ED50: 21.4 µM
[14]
  ED50: 0.13 µM
[15]
  ED50: 3210 µM
[16]
  ED50: 4.57 µM
[17]
  ED50: 647 µM
[18]
  ED50: 7.59 µM
[19]
  ED50: 0.0236 µM
[20]
  ED50: 0.0471 µM
[21]
  ED50: 120 µM
[22]
  ED50: 0.311 µM
[23]
  ED50: 0.622 µM
[24]
  ED50: 0.0999 µM
[25]
  ED50: 0.0242 µM
[26]
  ED50: 0.193 µM
[27]
  ED50: 7.07 µM
Peflin (Homo sapiens)
  ED50: 10.8 µM
[28]
  ED50: 0.0839 µM
[29]
  ED50: 0.0846 µM
[30]
  ED50: 0.00142 µM
[31]
  ED50: 385 µM
[32]
  ED50: 5.79 µM
[33]
  ED50: 0.0513 µM
[34]
  ED50: 0.0592 µM
[35]
  ED50: 0.061 µM
[36]
  ED50: 6.74 µM
[37]
  ED50: 107 µM
[38]
  ED50: 0.431 µM
[39]
  ED50: 0.0908 µM
[40]
  ED50: 0.68 µM
[41]
  ED50: 0.32 µM
[42]
  ED50: 3.84 µM
[43]
  ED50: 4.59 µM
